The values below are quoted from earlier work in US20080187561A1, “Enteric Coated Didanosine Compositions Having A Subcoat” (priority 2007, published 2008).

Structures are written as SMILES.

For the data set the following is noted: pH<3, 37° C., acidic solution.

For `OC[C@@H]1CC[C@H](n2cnc3c(O)ncnc32)O1` [didanosine, 2′,3′-dideoxyinosine], the “Time in which 10% of didanosine decomposes to hypoxanthine” value is listed as “less than 2 minutes”.
